According to US20260269287A1, “ALL-NONAQUEOUS MEMBRANE-FREE FLOW BATTERIES” (University of Cincinnati, priority 2023, published 2026):
“Also recorded” adds a separate entry of the source.

Columns and labels:
Type in all cases: physicochemical
[1] = Solubility test in 1.5 M LiClO4/FEC; details: average of repeated tests
Experimental: (§1) Solubility test. A solution of 1.5 M LiClO4/FEC was used for the solubility measurements. The solution was gradually added to a vial containing known amounts of the organic compounds used as the catholytes (Tri-TEMPO, C3-PTZ, and CP). Once a clear solution was obtained, the volume of the electrolyte was determined using an analytical pipette. The solubilities of the organic compounds were calculated from the ratio of the molar amount to the electrolyte volume. These steps were repeated twice, and the average values are presented.
as §1, with “processes” for “steps”
Solubility Test. A solution of FEC/LiClO4 (1.5 M) was used for the solubility measurements under an inert argon atmosphere at a temperature of 27° C. The solution was gradually added to a vial containing known amounts of the organic compounds used as the catholytes (Tri-TEMPO, C3-PTZ, and CP). Once a clear solution was obtained, the volume (50 μL) of the electrolyte was determined using an analytical pipette (P20). The solubilities of the organic compounds were calculated from the ratio of the molar amount to the electrolyte volume. These processes were repeated twice, and the average values are presented.

[2] = Cyclic voltammetry of redox-active cathode materials in 0.1 M LiClO4/FEC; details: for reversible redox couple potential: 5 mM in 0.1 M LiClO4/FEC; for electrochemical stability on repeated CV cycling: in 0.1 M LiClO4/FEC, 1st vs 2000th cycle at 200 mV/s; for ratio of cathodic peak current (ipc) and anodic peak current (ipa): scan rates 50-200 mV/s
Experimental: (§2) Electrochemical characterization. CV measurements were performed to evaluate the electrochemical properties of the redox-active materials (Tri-TEMPO, C3-PTZ, and CP) as well as the crossover of the redox-active materials before and after long-term battery cycling. For the CV measurements, 5 mM Tri-TEMPO, 5 mM C3-PTZ, and 5 mM CP solutions were prepared in 0.1 M LiClO4/FEC electrolyte. A 3-mm glassy carbon disk was used as the working electrode and was polished with 5-nm Al2O3 before the measurements. A piece of Pt wire (0.5 mm) was used as the counter electrode while a Ag/Ag^+ electrode was used as the reference electrode.
as §2, with “characterizations.” for “characterization.”, “mM of” for “mM”, “Tri-TEMPO,” for “Tri-TEMPO, 5 mM”, “and” for “and 5 mM”, “FEC/LiClO4” for “LiClO4/FEC”, “5 nm” for “5-nm”
Electrochemical Characterizations. For the CV measurements, 5 mM of Tri-TEMPO, C3-PTZ, and CP solutions were prepared in FEC/LiClO4 (0.1 M) electrolyte. A glassy carbon disk (CHI Instrument, 3 mm) was used as the working electrode and was polished with Al2O3(Pine Research Instrumentation, Inc., […]) before the measurements, where water was used as the solvent to polish the electrode. A piece of Pt wire (Pine Research Instrumentation, Inc., thickness 0.5 mm, purity 99.99%) was used as the counter electrode while an Ag/Ag+ (Fisher Scientific) electrode was used as the reference electrode. The CV measurements were performed using a Bio-Logic potentiostat. Electrochemical impedance spectroscopy (EIS) was performed using a potentiostatic signal spanning from 200 KHz to 100 mHz, with an amplitude of 10 mV. The measurements were conducted under open-circuit voltage (OCV) conditions for a total of 54 data points. The charge/discharge performances were evaluated using Land and Bio-Logic potentiostats.

[3] = Crossover in the biphasic system under static conditions (UV-visible spectroscopy and CV); details: 15 days, 0.5 M redox material, FEC/BMP-TFSI biphasic system
Experimental: (§3) To explore catholyte materials that meet these solubility requirements, eleven organic compounds were selected, and their solubilities in both phases of the NBS were tested. These materials included derivatives of phenothiazine, cyclopropenium, 2,2,6,6-tetramethylpiperidinyloxy (TEMPO), anthraquinone (AQ), and ferrocene (FIG. 9).
as §3, with “cyclopropenium” for “cyclopropenium,”, “33). […] The solubilities of Tri-TEMPO, C3-PTZ, and CP in 1.5 M FEC/LiClO4 were ~1.2 M, ~1 M, and 1.8 M, respectively.” for “9).”
as §3, with “(FIGS. 33 and 102). […] The solubilities of Tri-TEMPO, C3-PTZ, and CP in […] (1.5 M) were ~1.2 M, ~1 M, and 1.8 M, respectively.” for “(FIG. 9).”
Physiochemical Characterization. The UV-visible absorption spectra were recorded using a UV-visible spectrophotometer (Cary 8454 UV-Vis, Agilent Technologies). To perform UV-vis measurements, samples with concentrations below 5 mM were prepared. To achieve this, highly concentrated samples were diluted in an appropriate electrolyte solvent before conducting the UV-vis measurements. For the UV-vis calibration curve, stock solutions of Tri-TEMPO at concentrations of 0.3 M and 0.5 M were prepared in FEC/LiClO4 (1.5 M). These solutions were then further diluted to prepare solutions with concentrations of 1, 2, 3, 4, and 5 mM. In addition, a blank sample containing no redox materials was prepared to measure the UV-vis spectrum. The absorption intensity of the UV-vis spectra at different concentrations was used to construct the UV-vis calibration curve. […]

[4] = 1H NMR stability of C3-PTZ and CP at room temperature and 60° C.; details: over 10 days at 25° C. and 60° C., CD3CN
Experimental: The ^1H NMR spectra were recorded on a Bruker AV400 spectrometer (400 MHz). The chemical shifts were reported in ppm. To determine if CP or C3PTZ had crossed through the biphasic layer, we extracted […] samples from anolyte before and after subjecting the system to extended charge/discharge cycles (~100 cycles). These […] samples were subjected to 1H NMR analysis by combining them with […] of CD3CN, resulting in a total NMR solvent volume of […]. In addition, we followed specific sample preparation procedures to assess the stability of CP and C3-PTZ using ^1H NMR. Approximately 5 mg of either solid CP or C3-PTZ was mixed with […] of CD3CN to create NMR samples. Two NMR samples were prepared for each compound in NMR tubes equipped with J. Young air-inlet valves. Firstly, we recorded ^1H NMR spectra for these NMR samples, after which we stored one NMR tube of each sample at room temperature while the other was placed at 60° C. Subsequently, we collected a series of ^1H NMR spectra at 24-h intervals for 10 days using these samples.

[5] = Screening of cathode materials: solubilities in both phases of the FEC/BMP-TFSI nonaqueous biphasic system; details: for solubility in FEC (catholyte): FEC / cathode electrolyte FEC/LiClO4; for affinity towards the anolyte: anode electrolyte BMP-TFSI/LiTFSI
Experimental: as §3
as §3, with “cyclopropenium” for “cyclopropenium,”, “33). […] The solubilities of Tri-TEMPO, C3-PTZ, and CP in 1.5 M FEC/LiClO4 were ~1.2 M, ~1 M, and 1.8 M, respectively.” for “9).”
as §3, with “(FIGS. 33 and 102). […] The solubilities of Tri-TEMPO, C3-PTZ, and CP in […] (1.5 M) were ~1.2 M, ~1 M, and 1.8 M, respectively.” for “(FIG. 9).”

[6] = 1H and 19F NMR determination of LiTFSI concentration in the TEGDME and NFTTS layers; details: TEGDME/NFTTS biphasic system after salt-out
Experimental: Physicochemical characterizations. The UV-visible absorption spectra were collected on a UV-visible spectrophotometer (Agilent Technologies, Cary 8454 UV-Vis). To perform UV-visible measurements, dilute samples with concentrations below 5 mM were prepared. To achieve this, highly concentrated samples were diluted in an appropriate electrolyte solvent before conducting the UV-visible measurements. A blank sample containing no redox materials was prepared to measure the UV-visible spectrum. The ^1H and ^19F NMR spectra were recorded on a Bruker AV400 spectrometer (400 MHz). The chemical shifts were reported in ppm. To measure the concentration of LiTFSI in TEGDME and NFTTS layers of the biphasic system, a sample of 10 μL volume was collected from each layer and mixed with 400 μL of CDCl3 for preparing the NMR samples. ^1H NMR spectra were first recorded using these samples, and 50 μL of TBAPF6, as an internal standard, was then added to those samples before performing ^19F NMR.
For Design-I, because the gravimetric densities of the solvents followed the sequence TEGDME<NFTTS<FEC, TEGDME was used as the anolyte for the top layer, NFTTS as the ion-exchange layer in the middle, and FEC as the catholyte in the bottom layer. […] This property poses a challenge in constructing a stable triphasic system with the desired immiscibility between the layers. […]

solubility [1] | reversible redox couple potential [2] [V vs. Ag/Ag^+] | electrochemical stability on repeated CV cycling [2] | ratio of cathodic peak current (ipc) and anodic peak current (ipa) [2] | crossover from catholyte to anolyte [3] | solubility in FEC (catholyte) [5] | affinity towards the anolyte [5] | Structure (SMILES) | thermostability by 1H NMR [4] | concentration of LiTFSI in the NFTTS phase [6] [M] | concentration of LiTFSI in the TEGDME phase [6] [M]
~ 1 M | 0.33 | high cycling stability | ~1 | Negligible crossover | high solubilities | extremely poor affinity | CCCN1c2ccccc2Sc2ccccc21 [C3-PTZ, N-propyl phenothiazine] | superior thermostability; also recorded: improved thermo-stability | – | –
1.8 M | 0.93 | high cycling stability | ~1 | Negligible crossover | high solubilities | extremely poor affinity | CCCCN(CC)c1c(N(CC)CCCC)[c+]1N(CC)CCCC.F[P-](F)(F)(F)(F)F [CP, tris(dialkylamino)cyclo-propenium] | superior thermostability; also recorded: improved thermo-stability | – | –
– | – | – | – | – | – | – | O=S(=O)([N-]S(=O)(=O)C(F)(F)F)C(F)(F)F.[Li+] [LiTFSI, lithium bis(trifluoromethanesulfonyl)imide] | – | 0.14 | 1
~ 1.2 M | 0.37 | high cycling stability | ~1 | Negligible crossover | high solubilities | extremely poor affinity | CC1(C)CC(Nc2nc(NC3CC(C)(C)N(OC4CCCCC4)C(C)(C)C3)nc(NC3CC(C)(C)N(OC4CCCCC4)C(C)(C)C3)n2)CC(C)(C)N1OC1CCCCC1 [Tri-TEMPO, 2,4,6-tri-(1-cyclohex-yloxy-4-imino-2,2,6,6-tetramethylpiperidine)-1,3,5-triazine] | – | – | –
